System: T1, RcLipase
T1 construct: catalytic Ser146, Asp211, His276; oxyanion Thr63, Leu147
Test: hydrolysis kinetics, Michaelis-Menten non-linear regression
Type: biochemical, Ricinus communis
Details: 20 mM Tris-HCl pH 8.0, 40 °C; substrate 0-1 mM

Compound	Km
CCCCCCCC/C=C\CCCCCCCC(=O)OCC(COC(=O)CCCCCCC/C=C\CCCCCCCC)OC(=O)CCCCCCC/C=C\CCCCCCCC [Triolein]	210 ± 10 µM
CCCCCCCCCCCCCCCC(=O)OCC(COC(=O)CCCCCCCCCCCCCCC)OC(=O)CCCCCCCCCCCCCCC [Tripalmitin]	170 ± 10 µM

Reference: PMC7994567, “Characterization of a novel sn1,3 lipase from Ricinus communis L. suitable for production of oleic acid-palmitic acid-glycerol oleate” (Scientific Reports, 2021)
